For experiment [1], the target named is smooth muscle angiotensin II receptor. Kind of experiment: Assay A: Angiotensin II Binding Activity (displacement of 125I-angiotensin II, rat uterine membrane preparation). The conditions noted are these: 50% displacement of specifically bound 125I-AII, rat uterine membranes, 25° C., 60 min, pH 7.5. As for the experimental part: Assay A: Angiotensin II Binding Activity
Compounds of the invention were tested for ability to bind to the smooth muscle angiotensin II receptor using a rat uterine membrane preparation. Angiotensin II (AII) was purchased from Peninsula Labs. ^125 I-angiotensin II (specific activity of 2200 Ci/mmol) was purchased from Du Pont-New England Nuclear. Other chemicals were obtained from Sigma Chemical Co. This assay was carried out according to the method of Douglas et al [Endocrinology, 106, 120-124 (1980)]. Rat uterine membranes were prepared from fresh tissue. All procedures were carried out at 4° C. Uteri were stripped of fat and homogenized in phosphate-buffered saline at pH 7.4 containing 5 mM EDTA. The homogenate was centrifuged at 1500×g for 20 min., and the supernatant was recentrifuged at 100,000×g for 60 min. The pellet was resuspended in buffer consisting of 2 mM EDTA and 50 mM Tris-HCl (pH 7.5) to a final protein concentration of 4 mg/ml. Assay tubes were charged with 0.25 ml of a solution containing 5 mM MgCl2, 2 mM EDTA, 0.5% bovine serum albumin, 50 mM Tris-HCl, pH 7.5 and ^125 I-AII (approximately 10^5 cpm) in the absence or in the presence of unlabelled ligand. The reaction was initiated by the addition of membrane protein and the mixture was incubated at 25° C. for 60 min. The incubation was terminated with ice-cold 50 mM Tris-HCl (pH 7.5) and the mixture was filtered to separate membrane-bound labeled peptide from the free ligand. The incubation tube and filter were washed with ice-cold buffer. Filters were assayed for radioactivity in a Micromedic gamma counter. Nonspecific binding was defined as binding in the presence of 10 μM of unlabelled AII. Specific binding was calculated as total binding minus nonspecific binding. The receptor binding affinity of an AII antagonist compound was indicated by the concentration (IC50) of the tested AII antagonist which gives 50% displacement of the total specifically bound ^125 I-AII from the high affinity AII receptor. Binding data were analyzed by a nonlinear least-squares curve fitting program.
On the technique in general: Displacement assays read how much labelled ligand stays bound in the presence of the test substance.

Experiment [2] has as its target T1, rabbit aortic rings (angiotensin II contraction) (Oryctolagus cuniculus, UniProt P34976).
T1 construct: The thoracic aorta was removed, cleaned of adherent fat and connective tissue and then cut into 3-mm ring segments; from tissue; host or cells: rabbit thoracic aorta rings, endothelium removed
T1 sequence (P34976 1-359): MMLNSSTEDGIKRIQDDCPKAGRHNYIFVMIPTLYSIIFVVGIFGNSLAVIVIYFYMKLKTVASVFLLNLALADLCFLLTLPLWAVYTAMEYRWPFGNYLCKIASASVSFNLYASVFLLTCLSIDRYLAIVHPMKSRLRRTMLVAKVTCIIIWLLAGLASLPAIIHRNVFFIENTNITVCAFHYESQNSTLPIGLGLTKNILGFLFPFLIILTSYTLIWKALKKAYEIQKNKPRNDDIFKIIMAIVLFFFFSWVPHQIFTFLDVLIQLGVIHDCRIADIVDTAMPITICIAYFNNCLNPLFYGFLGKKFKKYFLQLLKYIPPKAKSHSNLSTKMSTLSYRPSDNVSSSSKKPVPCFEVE
In words: Assay B: In Vitro Vascular Smooth Muscle Response for AII (rabbit aortic rings). Type of experiment: cell-based, rabbit (male New Zealand white). The conditions noted are these: rabbit aorta rings, antagonist 10^-5 M for 5 min, 37° C., read-out: Assay B pA2 (converted). The procedure:
Assay B: In Vitro Vascular Smooth Muscle-Response for AII
The compounds of the invention were tested for antagonist activity in rabbit aortic rings. Male New Zealand white rabbits (2-2.5 kg) were sacrificed using an overdose of pentobarbital and exsanguinated via the carotid arteries. The thoracic aorta was removed, cleaned of adherent fat and connective tissue and then cut into 3-mm ring segments. The endothelium was removed from the rings by gently sliding a rolled-up piece of filter paper into the vessel lumen. The rings were then mounted in a water-jacketed tissue bath, maintained at 37° C., between moveable and fixed ends of a stainless steel wire with the moveable end attached to an FT03 Grass transducer coupled to a Model 7D Grass Polygraph for recording isometric force responses. The bath was filled with 20 ml of oxygenated (95% oxygen/5% carbon dioxide) Krebs solution of the following composition (mM): 130 NaCl, 15 NaHCO3, […], 1.2 NaH2 PO4, 1.2 MgSO4, 2.5 CaCl2, and 11.4 glucose. The preparations were equilibrated for one hour before approximately one gram of passive tension was placed on the rings. Angiotensin II concentration-response curves were then recorded (3×10^-10 to 1×10^-5 M). Each concentration of AII was allowed to elicit its maximal contraction, and then AII was washed out repeatedly for 30 minutes before rechallenging with a higher concentration of AII. Aorta rings were exposed to the test antagonist at 10^-5 M for 5 minutes before challenging with AII. Adjacent segments of the same aorta ring were used for all concentration-response curves in the presence or absence of the test antagonist. The effectiveness of the test compound was expressed in terms of pA2 values and were calculated according to H. O. Schild [Br. J. Pharmacol. Chemother., 2, 189-206 (1947)]. The pA2 value is the concentration of the antagonist which increases the IC50 value for AII by a factor of two. Each test antagonist was evaluated in aorta rings from two rabbits.

The mark [3] stands for this setting: first of two values in the cell (rings from two rabbits).
Setting [4] is: second of two values in the cell (rings from two rabbits).

Where two headings read alike, the source gives them in different places.

We go through 18 compounds from patent publication US5674879A, “Compositions including and methods of using conformationally restricted angiotensin II antagonist” (G.D. Searle & Co., priority 1995, dated 1997).

As a reminder, the IC50 is the concentration that gives 50% inhibition. Low readings indicate greater potency, high ones weaker potency.

`CCCCc1ncc2n1[C@@H](c1ccc(-c3ccccc3-c3nn[nH]n3)cc1)CC[C@H]2O` (relative stereo) [Example 13, 3-Butyl-5,6,7,8-tetrahydro-5-[2'-(1H-tetrazol-5-yl)[1,1'-biphenyl]-4-yl]imidazo[1,5-a]pyridin-cis-8-ol] gave an IC50 in experiment [1] of 0.023 µM. Also, the Kb was 0.1 µM in experiment [2] (setting [3]) and 0.138 µM in experiment [2] (setting [4]).

In experiment [1], `CCCCc1ncc2n1[C@@H](c1ccc(-c3ccccc3-c3nn[nH]n3)cc1)CC[C@@H]2O` (relative stereo) [Example 14, 3-Butyl-5,6,7,8-tetrahydro-5-[2'-(1H-tetrazol-5-yl)[1,1'-biphenyl]-4-yl]imidazo[1,5-a]pyridin-trans-8-ol] yielded an IC50 of 0.12 µM. Besides, the Kb is 0.331 µM in experiment [2] (setting [3]) and 0.55 µM in experiment [2] (setting [4]).

`CCCCc1ncc2n1[C@@H](c1ccc(-c3ccccc3-c3nn[nH]n3)cc1)CC[C@H]2CC(=O)OC(C)(C)C` (relative stereo) [Example 19, 1,1-Dimethylethyl 3-butyl-5,6,7,8-tetrahydro-5-[2'-(1H-tetrazol-5-yl)[1,1'-biphenyl]-4-yl]imidazo[1,5-a]pyridin-cis-8-acetate]: in experiment [1], the IC50 came to 0.067 µM. For the same compound, the Kb was 0.0708 µM in experiment [2] (setting [3]) and 0.141 µM in experiment [2] (setting [4]).

In the case of `CCCCc1ncc2n1[C@@H](c1ccc(-c3ccccc3-c3nn[nH]n3)cc1)CC[C@H]2CC(=O)O` (relative stereo) [Example 20, 3-Butyl-5,6,7,8-tetrahydro-5-[2'-(1H-tetrazol-5-yl)[1,1'-biphenyl]-4-yl]imidazo[1,5-a]pyridin-cis-8-acetic acid], the IC50 in experiment [1] was 0.24 µM. The Kb was 0.129 µM in experiment [2] (setting [3]) and 0.141 µM in experiment [2] (setting [4]).

In experiment [1], `CCCCc1ncc2n1[C@H](c1ccc(-c3ccccc3-c3nnn[nH]3)cc1)CC[C@@H]2OCc1ccccc1` (relative stereo) [Example 24, 3-Butyl-5,6,7,8-tetrahydro-5-[2'-(1H-tetrazol-5-yl)[1,1'-biphenyl]-4-yl]-cis-8-phenylmethoxy-imidazo[1,5-a]pyridine] showed an IC50 of 0.036 µM.

For the compound `CCCCc1nc(CCCC)n2c1C=CCC2c1ccc(-c2ccccc2-c2nnn[nH]2)cc1` (stereo not shown) [Example 1, 1,3-Dibutyl-5,6-dihydro-5-[2'-(1H-tetrazol-5-yl)[1,1'-biphenyl]-4-yl]imidazo[1,5-a]pyridine], in experiment [1], the IC50 turned out to be 0.19 µM. The Kb in experiment [2] (setting [3]) was 0.398 µM; in experiment [2] (setting [4]), 0.537 µM.

In experiment [1], `CCCCc1nc(CCCC)n2c1C=C(Br)CC2c1ccc(-c2ccccc2-c2nnn[nH]2)cc1` (stereo not shown) [Example 2, 7-Bromo-1,3-dibutyl-5,6-dihydro-5-[2'-(1H-tetrazol-5-yl)[1,1'-biphenyl]-4-yl]imidazo[1,5-a]pyridine] gave an IC50 of 2.1 µM. Further, the Kb in experiment [2] (setting [3]) was 1.45 µM; in experiment [2] (setting [4]), 0.263 µM.

As for `CCCCc1nc(CCCC)n2c1CCCC2c1ccc(-c2ccccc2-c2nnn[nH]2)cc1` (stereo not shown) [Example 3, 1,3-Dibutyl-5,6,7,8-tetrahydro-5-[2'-(1H-tetrazol-5-yl)[1,1'-biphenyl]-4-yl]imidazo[1,5-a]pyridine], in experiment [1], the half-inhibitory concentration (IC50) amounted to 0.27 µM. For the same compound, the values for the Kb in experiment [2] (setting [3]) and in experiment [2] (setting [4]) were 0.0537 µM and 0.224 µM, respectively.

For the compound `CCCCc1nc(CCCC)n2c1C(O)CCC2c1ccc(-c2ccccc2-c2nnn[nH]2)cc1` (stereo not shown) [Example 4, 1,3-Dibutyl-5,6,7,8-tetrahydro-5-[2'-(1H-tetrazol-5-yl)[1,1'-biphenyl]-4-yl]imidazo[1,5-a]pyridin-8-ol], the 50% inhibitory concentration (IC50) in experiment [1] stood at 0.051 µM. The Kb was 0.0224 µM in experiment [2] (setting [3]) and 0.0145 µM in experiment [2] (setting [4]).

The compound `CCCCc1nc(CCCC)n2c1C(=O)CCC2c1ccc(-c2ccccc2-c2nn[nH]n2)cc1` (stereo not shown) [Example 5, 1,3-Dibutyl-5,6-dihydro-5-[2'-(1H-tetrazol-5-yl)[1,1'-biphenyl]-4-yl]imidazo[1,5-a]pyridin-8(5H)-one] gave an IC50 in experiment [1] of 0.06 µM. Further, the Kb is 0.0138 µM in experiment [2] (setting [3]) and 0.00708 µM in experiment [2] (setting [4]).

Turning to `CCCCc1nc(CCCC)n2c1C(c1ccccc1)=CCC2c1ccc(-c2ccccc2-c2nnn[nH]2)cc1` (stereo not shown) [Example 6, 1,3-Dibutyl-5,6-dihydro-8-phenyl-5-[2'-(1H-tetrazol-5-yl)[1,1'-biphenyl]-4-yl]imidazo[1,5-a]pyridine], the IC50 in experiment [1] worked out at 2.8 µM.

Regarding `CCCCc1nc(CCCC)n2c1C(=CC(=O)O)CCC2c1ccc(-c2ccccc2-c2nnn[nH]2)cc1` (stereo not shown) [Example 7, [1,3-Dibutyl-6,7-dihydro-5-[2'-(1H-tetrazol-5-yl)[1,1'-biphenyl]-4-yl]imidazo[1,5-a]pyridin-8(5H)-ylidene]acetic acid], the half-inhibitory concentration (IC50) in experiment [1] came to 15 µM.

Compound `CCCCc1nc(CCCC)n2c1C(N1C(=O)CCC1=O)CCC2c1ccc(-c2ccccc2-c2nnn[nH]2)cc1` (stereo not shown) [Example 8, 1-[1,3-Dibutyl-5,6,7,8-tetrahydro-5-[2'-(1H-tetrazol-5-yl)[1,1'-biphenyl]-4-yl]imidazo[1,5-a]pyridin-8-yl]-2,5-pyrrolidinedione] gave an IC50 in experiment [1] of 0.027 µM.

In the case of `CCCCc1nc(CCCC)n2c1C(NC(=O)CCC(=O)NN)CCC2c1ccc(-c2ccccc2-c2nn[nH]n2)cc1` (stereo not shown) [Example 9], the IC50 in experiment [1] stood at 0.044 µM. Further, the results for the Kb in experiment [2] (setting [3]) and in experiment [2] (setting [4]) were 0.0708 µM and 0.0575 µM, respectively.

Consider `CCCCc1nc(CCCC)n2c1C=CCCC2c1ccc(-c2ccccc2-c2nnn[nH]2)cc1` (stereo not shown) [Example 10, 1,3-Dibutyl-6,7-dihydro-5-[2'-(1H-tetrazol-5-yl)[1,1'-biphenyl]-4-yl]-5H-imidazo[1,5-a]azepine], for which, in experiment [1], the IC50 turned out to be 0.33 µM.

Take `CCCCc1ncc2n1C(c1ccc(-c3ccccc3-c3nnn[nH]3)cc1)CC=C2` (stereo not shown) [Example 11, 3-Butyl-5,6-dihydro-5-[2'-(1H-tetrazol-5-yl)[1,1'-biphenyl]-4-yl]imidazo[1,5-a]pyridine]: in experiment [1], the IC50 worked out at 0.12 µM.

On to `CCCCc1ncc2n1C(c1ccc(-c3ccccc3-c3nn[nH]n3)cc1)CCC2=O` (stereo not shown) [Example 12, 3-Butyl-5,6-dihydro-5-[2'-(1H-tetrazol-5-yl)[1,1'-biphenyl]-4-yl]imidazo[1,5-a]pyridin-8(5H)-one], for which the IC50 in experiment [1] stood at 0.11 µM. Moreover, the Kb in experiment [2] (setting [3]) was 0.219 µM; in experiment [2] (setting [4]) it was 0.0891 µM.

`CCCCc1ncc2n1C(c1ccc(-c3ccccc3-c3nnn[nH]3)cc1)CC=C2CC(=O)O` (stereo not shown) [Example 18, 3-Butyl-5,6-dihydro-5-[2'-(1H-tetrazol-5-yl)[1,1'-biphenyl]-4-yl]imidazo[1,5-a]pyridin-8-acetic acid] had an IC50 in experiment [1] of 0.2 µM.
